Measured values taken from patent EP0103895A2, “Novel hydroxylamine derivatives, production and use thereof” (MEIJI SEIKA KABUSHIKI KAISHA, priority 1982, dated 1984).

How the values were obtained:
[1] = tested on: Liver fluke; Fasciola hepatica (F. hepatica); experiment: Test of anthelmintic effect against rat infected experimentally with liver fluke (Test Examples A11, B11, C11, D11); assay type: in vivo; design: key to Presence or absence of fluke egg in fecal matter On 21st day after the last administration: +: indicates detection of fluke egg; -: indicates no detection; details: rats, 50 mg/Kg x 5 orally, one value per rat; for Condition of fluke body: autopsy, liver, "Denatured" = fluke body is alive but a part of fluke body has changed
Text: Twenty-eight (28) rats were employed in fourteen groups each of two rats, each rat being infected with 5 metacercariae of Liver fluke; Fasciola he^patica (F.. hepatica) and confirmed to have worm eggs on the 75th day after infection according to fecal matter testing.
Judgement of the effect was made by the presence or absence of the worm gees in the fecal matter on the 21st day after the last administration and by examination according to autopsis as to whether the worm bodies were dead or alive in the liver.
The same as that in Test Example All, but eight (8) rats were employed by grouping them into groups each of two rats, each rat being infected with 5 metacercariae of liver fluke and confirmed to have fluke eggs on the 75th day after infection according to fecal matter testing.
The compounds provided for the tests were Compound Nos. Bl, B8 and B19.
The same as that in Test Example All, but six (6) rats were employed by grouping them into groups each of two rats, each rat being infected with 5 metacercariae of Fasciola hepatica and confirmed to have worm eggs on the 75th day after infection according to fecal matter testing.
The compounds provided for the tests were Compound Nos. C2 and C6.
The same as that in Test Example All, but the compounds provided for tests were Compound Nos. D14, D15 and D16.

[2] = tested on: fowl roundworm (As. galli); experiment: Anthelmintic test in chickens artificially infected with fowl roundworm, compound added to feed, E.P.G. and worm count up to 21st day (Test Examples A2, B2, C2, D2); assay type: in vivo, Ascaridia galli; details: Ascaridia galli, po, 504 h, chickens, worm count on 21st day, one value per chicken, read-out: Anthelmintic effect; for inhibition in vivo at 10 ppm: 10 ppm added to feed; for inhibition in vivo at 50 ppm: 50 ppm added to feed
Description: Chickens artificially infected with fowl roundworm (As. galli) were employed in groups each of two chickens.
Fecal matter testing was conducted before initiation of the test and on the 7th, 14th and 21st day after initiation of the test. Reduction in worm egg number was examined by calculating E.P.G. (worm eggs per 1 g of fecal matter), and the number of discharged worm bodies and the number of worm bodies remaining in the enteron when the chicken was killed on 21st day were counted to determine the anthelmintic percentage, from which the anthelmintic effect was judged.

[3] = tested on: fowl roundworm (As. galli); experiment: Anthelmintic test in chickens infected with fowl roundworm, compound added to feed at 250 ppm and 1,000 ppm, E.P.G. and worm count on 5th day (Test Example E2); assay type: in vivo, Ascaridia galli; details: for E.P.G. after 5 days: worm egg number in 1 g of fecal matter; for anthelmintic effect / inhibition in vivo at 250 ppm / inhibition in vivo at 1000 ppm: 5th day; for inhibition in vivo at 250 ppm / inhibition in vivo at 1000 ppm: Ascaridia galli, feed or water, 120 h, read-out: Anthelmintic effect
Description: Chickens infected with fowl roundworm (As. galli) were employed in groups each of two chickens.
The compound provided for the test was dissolved in a small amount of ethyl alcohol and adsorbed on defatted rice bran and added to chicken feed at levels of 250 ppm and 1,000 ppm. As control, a feed containing no such compound was employed.
Fecal matter testing was conducted before initiation of the test and on the 5th day after initiation of the test. The reduction in worm egg count was examined by calculating the E.P.G. (worm egg number in 1 g of fecal matter). The number of discharged worm bodies and the number of worm bodies remaining in the enteron when the chicken was killed on 5th day were counted to determined the anthelmintic percentage, from which the anthelmintic effect was judged.

[4] = tested on: fowl roundworm (As. galli); experiment: Anthelmintic test in chickens infected with fowl roundworm, single oral dose of 40 mg per Kg, worm bodies counted within 24 hours (Test Example E1); assay type: in vivo, Ascaridia galli; details: 40 mg per Kg oral in gelatin capsule; for inhibition in vivo at 40 mg/kg: Ascaridia galli, 24 h, chicken No.1, read-out: Anthelmintic effect after one day
Description: Chickens infected with fowl roundworm (As. galli) were employed in groups each consisting of five chickens. The compound provided for testing was orally administered in a quantity of 40 mg per Kg of body weight to each chicken in a gelatin capsule. The number of worm bodies discharged within 24 hours after administration of the medicine was counted. Then the chicken was killed, and the number of worm bodies remaining in the enteron was counted to determine the anthelmintic percentage, wherefrom the anthelmintic effect was judged.

[5] = 1000 ppm in feed, chicken No. 1
[6] = 1000 ppm in feed, chicken No. 2

SMILES	Condition of fluke body [1]	Presence or absence of fluke egg in fecal matter On 21st day after the last administration [1]	inhibition in vivo at 10 ppm [2] [%]	inhibition in vivo at 50 ppm [2] [%]	Condition of fluke body ([1]; 50 mg/kg)	E.P.G. after 5 days ([3]; 250 ppm in feed, chicken No. 1)	anthelmintic effect ([3]; 250 ppm in feed, chicken No. 2)	E.P.G. after 5 days ([3]; 250 ppm in feed, chicken No. 2)	E.P.G. after 5 days [3, 5]	anthelmintic effect [3, 6]	E.P.G. after 5 days [3, 6]	inhibition in vivo at 250 ppm ([3]; 250 ppm in feed, chicken No. 1) [%]	inhibition in vivo at 1000 ppm [3, 5] [%]	inhibition in vivo at 40 mg/kg [4] [%]	Anthelmintic effect after one day ([4]; chicken No.2)	Anthelmintic effect after one day ([4]; chicken No.3)	Anthelmintic effect after one day ([4]; chicken No.4)	Anthelmintic effect after one day ([4]; chicken No.5)
C#CCN(OCC)C(C)=O [Compound A2, N-propargyl-N-acetyl-O-ethylhydroxylamine]	dead	-	80 to 90	100														
C#CCN(OCC=CC)C(C)=O [Compound A4, N-propargyl-N-acetyl-O-crotylhydroxylamine]	dead	-	80 to 90	100														
C#CCN(OCC=C)C(=O)CC [Compound A5, N-propargyl-N-propionyl-0-allylhydroxylamine]	dead	-	80 to 90	100														
C#CCN(OCC=C)C(=O)CCC [Compound A6, N-propargyl-N-butylyl-O-allylhydroxylamine]		-	100	100	dead and denatured													
C#CCN(OCC=C)C(=O)CCCC [Compound A7, N-propargyl-N-valeroyl-O-allylhydroxylamine]	dead	-	80 to 90	100														
C#CCN(OCC=C)C(=O)CCCCCCC/C=C\CCCCCCCC [Compound A8, N-propargyl-N-oleoyl-O-allylhydroxylamine]	dead	-	100	100														
C#CCN(OCC=C)C(=O)CCCCCCCCCCCCCCCCC [Compound A9, N-propargyl-N-stearoyl-N-allylhydroxylamine]	dead	-	100	100														
C#CCN(OCC=C)C(=O)c1ccccc1 [Compound A11, N-propargyl-N-benzoyl-O-allylhydroxylamine]	dead	-	80 to 90	100														
C#CCON(CC#C)C(=O)CCCCCCC/C=C\CCCCCCCC [Compound E6, N,O-dipropargyl-N-oleoylhydroxylamine]						0	+++ (100%)	0	0	+++ (100%)	0	100	100	100	+++ (100%)	+++ (100%)	+++ (100%)	+++ (100%)
C#CCON(CC#C)C(=O)c1ccccc1 [Compound E7, N,O-dipropargyl-N-benzoylhydroxylamine]						0	+++ (100%)	0	0	+++ (100%)	0	100	100	100	+++ (100%)	+++ (100%)	+++ (100%)	+++ (100%)
C#CCON(CC#C)C(=O)c1ccccc1Cl [Compound E8, N,O-dipropargyl-N-O-chlorobenzoylhydroxylamine]						0	+++ (100%)	0	0	+++ (100%)	0	100	100	100	+++ (100%)	+++ (100%)	+++ (100%)	+++ (100%)
C#CCON(C=O)CC#C [Compound E9, N,O-dipro- pargyl-N-formylhydroxylamine]						0	+++ (100%)	0	0	+++ (100%)	0	100	100	100	+++ (100%)	+++ (100%)	+++ (100%)	+++ (100%)
C#CCON(CC#C)C(=O)CCCCCCCCCCC [Compound E10, N,O-dipropargyl-N-lauroylhydroxylamine]						0	+++ (100%)	0	0	+++ (100%)	0	100	100	100	+++ (100%)	+++ (100%)	+++ (100%)	+++ (100%)
C#CCON(CC#C)C(=O)CCCCCCCCCCCCCCCCC [Compound E11, N,O-dipropargyl-N-stearoyl- hydroxylamine]						0	+++ (100%)	0	0	+++ (100%)	0	100	100	100	+++ (100%)	+++ (100%)	+++ (100%)	+++ (100%)
